Measured values as given in PMC5937946 (Biochemistry, 2017).
Where two headings read alike, the source gives them in different places.

How the values were obtained:
[1] = test system: C. albicans (ATCC, SC5314); experiment: Antifungal susceptibility assay; conditions: for growth inhibition of C. albicans by metal ion alone: concentration range tested 0–100 µM, no peptide
[2] = pH 7.4; cited from earlier work
[3] = pH 7.4; cited from earlier work; remark: listed apart in the source
[4] = test system: C. albicans cell-associated Cu; experiment: ICP-MS of cell-associated Cu content; assay type: cell-based, Candida albicans; conditions: cells grown overnight with BCS
[5] = test system: C. albicans (ATCC, SC5314)

## O=S(=O)([O-])[O-].[Cu+2] [CuSO4, copper sulfate]
[1]
  growth inhibition of C. albicans by metal ion alone: Neither Cu(II) nor Fe(III) by themselves inhibited growth

## O=C(O)CN(CC(=O)O)CC(=O)O [NTA, nitrilotriacetic acid]
[2]
  log KNTA(Cu(II)): 10.68

## O=S(=O)([O-])c1ccc(-c2nnc(-c3ccccn3)nc2-c2ccc(S(=O)(=O)[O-])cc2)cc1.[Na+].[Na+] [Fz, Ferrozine]
[3]
  log KFz2Cu(I): 11.56

## Cc1cc(-c2ccc(S(=O)(=O)O)cc2)c2ccc3c(-c4ccc(S(=O)(=O)O)cc4)cc(C)nc3c2n1 [BCS, bathocuproine disulphonate]
[4]
  decrease in cell-associated Cu compared to basal level: 70%
[5]
  concentrations well tolerated by C. albicans, ligand alone: ≤ 2000 µM

## O=C(O)CN(CCN(CC(=O)O)CC(=O)O)CC(=O)O [EDTA, ethylenediaminetetraacetic acid]
[1]; initial susceptibility testing of the ligands alone
  concentrations well tolerated by C. albicans, ligand alone: ≤ 250 µM

## [Cl][Fe]([Cl])[Cl] [Fe(III), FeCl3]
[1]
  growth inhibition of C. albicans by metal ion alone: Neither Cu(II) nor Fe(III) by themselves inhibited growth
